# “Also recorded” adds a separate entry of the source. Read-outs that look alike come from different tables or passages of the source.
# Key:
# [1] = Solubility study of crystalline forms in water (slurry, UV); assay type: physicochemical; conditions: for Solubility: slurry stirred 24 hours at ambient temperature (23° C.), UV
# Method: Analysis of the relative solubilities of crystalline tacedinaline Forms A, B, and D was performed as follows.
# The starting material was Form B. The only peak in the spectrum, at approximately 267 nm, was used. The UV parameters were: scan range: 190-800 nm; 480 nm/min; 1 cm cuvette.
# Each sample was placed in water to give a slurry. The slurries were stirred at ambient temperature for 24 hours. The temperature in the laboratory was monitored and found to be steady at 23° C. After 24 hours, the vials containing the slurries were centrifuged for about 5 minutes. The mother liquors were decanted and filtered through 0.2 micron filters, then diluted appropriately and analyzed by UV. Solids were dried under dry air purges and analyzed by XRPD.
# [2] = Accelerated stability studies, 40° C. and 75% relative humidity, XRPD; assay type: physicochemical
# Method: Accelerated stability studies were performed on samples of crystalline tacedinaline Forms A, B, C, and a mixture of Forms B and D, under conditions of 40° C. and 75% relative humidity. For the studies on Form A, samples were taken at 8 days, 15 days, one month, 10 weeks, and 8 months. For the studies on Forms B, C, and a mixture of Forms B and D, samples were taken at 2, 4, 6, 8, and 10 weeks.
# [3] = Competitive slurry experiment / relative thermodynamic stability; assay type: physicochemical; conditions: for relative thermodynamic stability, rank order: from Examples 10A, 11 and 12; for thermodynamic stability relative to other forms (in words): slurry experiments (THF overnight; acetone 7 days), Examples 10A, 11, 12
# Method: To a mixture of 161.3 mg of crystalline tacedinaline Forms B and D, was added 2 mL of acetone. The resulting slurry was stirred at ambient temperature for 7 days and filtered to give white solid.
# A slurry containing 25.8 mg tacedinaline Form A, 25.8 mg of a mixture of tacedinaline Forms B and D, a few milligrams of tacedinaline Form B, and 0.5 mL of tetrahydrofuran (THF) was stirred overnight and filtered to give 38.6 mg of a white solid. The white solid was analyzed by XRPD and determined to be tacedinaline Form A.
# [4] = Thermal stability relative to Form C; assay type: physicochemical
# Method: As used herein, the term “DSC” refers to differential scanning calorimetry. Unless otherwise noted, DSC data disclosed herein were obtained using a TA Instruments 2920 instrument. Samples were prepared in crimped aluminum pans and kept under a flow of nitrogen during analysis. The heating rate was 10° C./minute.
# As used herein, the term “TGA” refers to thermogravimetric analysis. Unless otherwise noted, TGA data disclosed herein were obtained using TA Instruments 2050 instrument. Samples were kept under a flow of nitrogen during analysis. The heating rate was 10° C./minute.
# [5] = Bioavailability / pharmacokinetics study, single IV and PO administration; assay type: in vivo, Sprague-Dawley rats; conditions: for AUC(0-inf) / AUC(0-t) / Cmax / clearance / half-life / MRT inf / Vd / bioavailability / Tmax: Sprague-Dawley, rat, plasma; for AUC(0-inf) / AUC(0-t) / Cmax / clearance / half-life / MRT inf / Vd / bioavailability: 1 mg/kg; for MRT inf: read-out: MRT(0-∞); for Vd: read-out: Vz
# Method: A study was performed to determine the pharmacokinetics parameters and bioavailability of Tacedinaline Form A in Sprague-Dawley Rats, following a single intravenous injection (IV) and oral administration (PO). Formulation: IV formulation: The test article was dissolved in 10% DMSO/45% PEG400/45% Saline to yield a final concentration of 0.5 mg/ml for intravenous injection. PO formulation: The test article was suspended in 0.5% methylcellulose in water to yield a final concentration of 0.2 mg/ml for oral administration. Collection Intervals: Three rats in each group were used for blood collection at each time point: Groups 1 and 2: Pre-dose and post-dose (5 min, 15 min, 30 min, 1 hour, 2 hours, 4 hours, 6 hours, 8 hours, and 24 hours). Analysis Procedure: The PK blood samples were centrifuged at approximately 8000 rpm for 6 minutes at 2-8° C. and the resulting plasma separated and stored frozen at approximately −80° C. (following separation, the plasma may be initially placed on ice prior to being stored in the −80° C. freezer). All the plasma samples were labeled with detailed information such as study number, animal number, matrix, time points of collection and date of collection. Pharmacokinetics Analysis: A standard set of parameters including Area Under the Curve (AUC(0-t) and AUC(0-∞)), elimination half-life (T1/2), maximum plasma concentration (Cmax), time to reach maximum plasma concentration (Tmax), clearance (CL), and volume of distribution (VZ) was calculated using noncompartmental analysis modules in FDA certified pharmacokinetic program WinNonlin Professional v6.1 (Pharsight, USA). Further, the bioavailability was estimated using the following formula: […]
smiles,measurement,setting,value
"CC(=O)Nc1ccc(C(=O)Nc2ccccc2N)cc1 [B + D, 4-acetamido-N-(2-aminophenyl)benzamide]",Solubility,[1],20.8 µg/mL
same,stability of the solid form (in words),[2]; listed as mixture of Form B and Form D,more stable than Form C
same,XRPD Result,[2]; pull time 2 weeks,B + D
same,XRPD Result,[2]; pull time 4 weeks,B + D
same,XRPD Result,[2]; pull time 6 weeks,B + D
same,XRPD Result,[2]; pull time 8 weeks,B + D
"CC(=O)Nc1ccc(C(=O)Nc2ccccc2N)cc1 [Form B, 4-(acetylamino)-N-(2-aminophenyl)benzamide]",solubility in water compared with other forms (in words),[1],superior to that of Forms A and D
same,Solubility,[1],42.6 µg/mL
same,stability of the solid form (in words),[2],more stable than Form C
same,"relative thermodynamic stability, rank order",[3],A>D>B
same,thermal stability relative to Form C (in words),[4],improved thermal stability relative to tacedinaline Form C
"CC(=O)Nc1ccc(C(=O)Nc2ccccc2N)cc1 [Form C, 4-(acetylamino)-N-(2-aminophenyl)benzamide, reference compound]",stability of the solid form (in words),[2],"converted to either Form D, or a mixture of Form D with some amount of Form A present"
same,XRPD Result,[2]; pull time 2 weeks,D + A
same,XRPD Result,[2]; pull time 6 weeks,D + A
same,XRPD Result,[2]; pull time 8 weeks,D + A
"CC(=O)Nc1ccc(C(=O)Nc2ccccc2N)cc1 [Form A, 4-(acetylamino)-N-(2-aminophenyl)benzamide]",Solubility,[1],17.6 µg/mL
same,stability of the solid form (in words),[2],"stable, as no conversion was seen"
same,CL_F,"[5]; PO 1 mg/kg, Animal No. 1",4.5 mL/min/kg
same,Vz_F,"[5]; PO 1 mg/kg, Animal No. 1",1.47 L/kg
same,CL_F,"[5]; PO 1 mg/kg, Animal No. 2",4.17 mL/min/kg
same,Vz_F,"[5]; PO 1 mg/kg, Animal No. 2",1.04 L/kg
same,CL_F,"[5]; PO 1 mg/kg, Mean",4.33 mL/min/kg
same,Vz_F,"[5]; PO 1 mg/kg, Mean",1.25 L/kg
same,AUC(0-inf),"[5]; iv, IV 1 mg/kg, Animal No. 1",3100 ng·h/mL
same,AUC(0-t),"[5]; iv, IV 1 mg/kg, Animal No. 1",3090 ng·h/mL
same,Cmax,"[5]; iv, IV 1 mg/kg, Animal No. 1",799 ng/mL
same,clearance,"[5]; iv, IV 1 mg/kg, Animal No. 1",5.33 mL/min/kg
same,half-life,"[5]; iv, IV 1 mg/kg, Animal No. 1",2.81 h
same,MRT inf,"[5]; iv, IV 1 mg/kg, Animal No. 1",3.46 h
same,Vd,"[5]; iv, IV 1 mg/kg, Animal No. 1",1.31 L/kg
same,AUC(0-inf),"[5]; iv, IV 1 mg/kg, Animal No. 2",3010 ng·h/mL
same,AUC(0-t),"[5]; iv, IV 1 mg/kg, Animal No. 2",3010 ng·h/mL
same,Cmax,"[5]; iv, IV 1 mg/kg, Animal No. 2",715 ng/mL
same,clearance,"[5]; iv, IV 1 mg/kg, Animal No. 2",5.5 mL/min/kg
same,half-life,"[5]; iv, IV 1 mg/kg, Animal No. 2",2.82 h
same,MRT inf,"[5]; iv, IV 1 mg/kg, Animal No. 2",3.57 h
same,Vd,"[5]; iv, IV 1 mg/kg, Animal No. 2",1.35 L/kg
same,AUC(0-inf),"[5]; iv, IV 1 mg/kg, Mean",3060 ng·h/mL
same,AUC(0-t),"[5]; iv, IV 1 mg/kg, Mean",3050 ng·h/mL
same,Cmax,"[5]; iv, IV 1 mg/kg, Mean",757 ng/mL
same,clearance,"[5]; iv, IV 1 mg/kg, Mean",5.5 mL/min/kg
same,half-life,"[5]; iv, IV 1 mg/kg, Mean",2.81 h
same,MRT inf,"[5]; iv, IV 1 mg/kg, Mean",3.52 h
same,Vd,"[5]; iv, IV 1 mg/kg, Mean",1.33 L/kg
same,bioavailability,"[5]; oral, rats, read-out: bioavailability",100%
same,AUC(0-inf),"[5]; po, PO 1 mg/kg, Animal No. 1",3730 ng·h/mL
same,AUC(0-t),"[5]; po, PO 1 mg/kg, Animal No. 1",3700 ng·h/mL
same,Cmax,"[5]; po, PO 1 mg/kg, Animal No. 1",687 ng/mL
same,half-life,"[5]; po, PO 1 mg/kg, Animal No. 1",3.81 h
same,bioavailability,"[5]; po, PO 1 mg/kg, Animal No. 1, read-out: F (Bioavailability)",122%
same,MRT inf,"[5]; po, PO 1 mg/kg, Animal No. 1",4.6 h
same,AUC(0-inf),"[5]; po, PO 1 mg/kg, Animal No. 2",4030 ng·h/mL
same,AUC(0-t),"[5]; po, PO 1 mg/kg, Animal No. 2",4020 ng·h/mL
same,Cmax,"[5]; po, PO 1 mg/kg, Animal No. 2",781 ng/mL
same,half-life,"[5]; po, PO 1 mg/kg, Animal No. 2",2.9 h
same,bioavailability,"[5]; po, PO 1 mg/kg, Animal No. 2, read-out: F (Bioavailability)",132%
same,MRT inf,"[5]; po, PO 1 mg/kg, Animal No. 2",4.06 h
same,AUC(0-inf),"[5]; po, PO 1 mg/kg, Mean",3880 ng·h/mL
same,AUC(0-t),"[5]; po, PO 1 mg/kg, Mean",3860 ng·h/mL
same,Cmax,"[5]; po, PO 1 mg/kg, Mean",734 ng/mL
same,half-life,"[5]; po, PO 1 mg/kg, Mean",3.35 h
same,bioavailability,"[5]; po, PO 1 mg/kg, Mean, read-out: F (Bioavailability)",127%
same,MRT inf,"[5]; po, PO 1 mg/kg, Mean",4.33 h
same,Tmax,"[5]; IV 1 mg/kg, Animal No. 1",0.5 h
same,Tmax,"[5]; PO 1 mg/kg, Animal No. 1",2 h
same,"relative thermodynamic stability, rank order",[3],A>D>B
same,thermodynamic stability relative to other forms (in words),[3],"more thermodynamically stable, relative to tacedinaline Forms B, and D; also recorded: more thermodynamically stable under certain conditions relative to Forms B and D"
same,thermal stability relative to Form C (in words),[4],improved thermal stability relative to tacedinaline Form C
"CC(=O)Nc1ccc(C(=O)Nc2ccccc2N)cc1 [Form D, 4-(acetylamino)-N-(2-aminophenyl)benzamide]","relative thermodynamic stability, rank order",[3],A>D>B
same,thermodynamic stability relative to other forms (in words),[3],more thermodynamically stable under certain conditions relative to Form B
same,thermal stability relative to Form C (in words),[4],improved thermal stability relative to tacedinaline Form C
